The structures appear in SMILES notation.

The species entered for this data set is Mus musculus. Put plainly: Hepatotoxicity in mouse assessed as carcinogenic potency. Particulars: in vivo.
For `ClCC(Cl)(Cl)Cl`, the pTD50 is 2.419.
In the case of `O=[N+]([O-])c1ccc2[nH]cnc2c1`, the pTD50 was found to be 2.458.
Take `COc1ccc([N+](=O)[O-])cc1N`: the pTD50 was 1.93.
As for `Cc1ccc([N+](=O)[O-])cc1N`, the pTD50 was 2.74.
For `Nc1ccc(Oc2ccc(N)cc2)cc1`, the pTD50 came out at 2.9.
With `COc1ccc(C)cc1N` the figure was 2.639; with `O=[N+]([O-])c1ccc2c3c(cccc13)CC2`, 3.638; with `Nc1cccc2c(N)cccc12`, 3.14.
`Cc1cc(C)c(N)cc1C`: the pTD50 is on record as 4.344.
Consider `Cc1ccc(N)cc1N`, for which the pTD50 is 3.66.
As for `NC(=S)NNC(N)=S`, the pTD50 is on record as 1.423.
The figure for `Nc1cc(Cl)c(N)c(Cl)c1` is 1.941.
In the case of `CCc1ccc(C(c2ccc(CC)cc2)C(Cl)Cl)cc1`, the pTD50 was 1.988.
As to `Nc1ccc(Cl)cc1N`, the pTD50 amounted to 1.73.
With `Cc1ccc(Cl)cc1N` the figure was 2.77; with `Nc1ccc(Cl)c(N)c1`, 1.9.
With `Nc1ccc2c(c1)C(=O)c1ccccc1C2=O` the figure was 2.185; with `ClC(Cl)C(Cl)Cl` [1,1,2,2-TETRACHLOROETHANE], 3.63.
`ClCC(Cl)CCl` [1,2,3-TRICHLOROPROPANE]: the pTD50 is listed as 4.041.
With `Clc1ccc(Cl)cc1` [1,4-DICHLOROBENZENE] the figure was 2.328; with `Nc1c(Br)cc(Br)c2c1C(=O)c1ccccc1C2=O` [1-AMINO-2,4-DIBROMOANTHRA-QUINONE], 2.313.
With `Clc1cc2c(cc1Cl)Oc1cc(Cl)c(Cl)cc1O2` [2,3,7,8-TETRACHLORODIBENZO-P-DIOXIN] the figure was 8.867; with `Nc1ccc(Sc2ccc(N)cc2)cc1` [4,4'-THIODIANILINE], 3.809; with `ClC(Cl)Br` [BROMODICHLOROMETHANE], 3.056.
For the molecule `C=CC=C` [BUTADIENE], the pTD50 came to 3.091.
On to `Nc1cc(Cl)cc(C(=O)O)c1Cl` [CHLORAMBEN], for which the pTD50 came out at 1.607.
The figure for `CCOC(=O)C(O)(c1ccc(Cl)cc1)c1ccc(Cl)cc1` [CHLOROBENZILATE] is 2.862; for `ClC(Cl)Cl` [CHLOROFORM] it is 3.361.
The figure for `C=CC(=C)Cl` [CHLOROPRENE] is 3.689; for `Nc1ccccc1C(=O)OC/C=C/c1ccccc1` [CINNAMYL ANTHRANILATE] it is 1.529; for `O=NN(O)c1ccccc1` [CUPFERRON] it is 2.439.
Turning to `C=C(C)[C@H]1CC=C(C)CC1` [D-LIMONENE], the pTD50 came to 1.113.
For the molecule `ClC(Cl)=C(c1ccc(Cl)cc1)c1ccc(Cl)cc1` [DICHLORODIPHENYLDICHLOROETHYLENE], the pTD50 is reported as 4.492.
`C1COCCO1` [DIOXANE]: the pTD50 is given as 1.883.
With `CCCl` [ETHYL CHLORIDE], the pTD50 is 0.93.
Regarding `S=C1NCCN1` [ETHYLENE THIOUREA], the pTD50 worked out at 3.341.
Take `CNc1ccc(N(CCO)CCO)cc1[N+](=O)[O-]` [HC BLUE NO. 1]: the pTD50 came out at 2.953.
Regarding `ClC(Cl)(Cl)C(Cl)(Cl)Cl` [HEXACHLOROETHANE], the pTD50 is 2.683.
For `c1ccc(NNc2ccccc2)cc1` [HYDRAZOBENZENE], the pTD50 was determined as 3.793.
Take `O=C1C2(Cl)C3(Cl)C4(Cl)C(Cl)(Cl)C5(Cl)C3(Cl)C1(Cl)C5(Cl)C24Cl` (centres undefined) [KEPONE]: the pTD50 is reported as 5.662.
With `ClCCl` [METHYLENE CHLORIDE], the pTD50 turned out to be 1.581.
With `CN(C)c1ccc(C(=O)c2ccc(N(C)C)cc2)cc1` [MICHLER'S KETONE], the pTD50 is given as 3.383.
In the case of `O=[N+]([O-])c1ccc(Oc2ccc(Cl)cc2Cl)cc1` [NITROFEN], the pTD50 turned out to be 3.203.
For the molecule `ClC(Cl)C(Cl)(Cl)Cl` [PENTACHLOROETHANE], the pTD50 is 3.39.
Turning to `O=C1NC(=O)C(c2ccccc2)(c2ccccc2)N1` [PHENYTOIN], the pTD50 was 3.18.
On to `C=C(Cl)CSC(=S)N(CC)CC` [SULFALLATE], for which the pTD50 was 3.32.
As to `O=C(O)c1cc(/N=N/c2ccc(S(=O)(=O)Nc3ccccn3)cc2)ccc1O` [SULFASALAZINE], the pTD50 amounted to 1.866.
As for `Cc1noc(NS(=O)(=O)c2ccc(N)cc2)c1C` [SULFISOXAZOLE], the pTD50 is given as 2.004.
With `ClC(Cl)=C(Cl)Cl` [TETRACHLOROETHYLENE] the figure was 3.1.
Regarding `FC(F)=C(F)F` [TETRAFLUOROETHYLENE], the pTD50 worked out at 2.907.
Consider `C1CCOC1` [TETRAHYDROFURAN], for which the pTD50 came out at 1.233.
On to `CC(Cl)(Cl)Cl` [TRICHLOROETHANE], for which the pTD50 is listed as 3.38.
In the case of `ClC=C(Cl)Cl` [TRICHLOROETHYLENE], the pTD50 was 2.16.
The figure for `CCCN(CCC)c1c([N+](=O)[O-])cc(C(F)(F)F)cc1[N+](=O)[O-]` [TRIFLURALIN] is 2.96.
